Usually Kd stands for the concentration at which binding is half-saturated.

The structures appear in SMILES notation.

The target in test [1] is EF-P of A. albensis.
Test [2] concerns the target T1, EF-P (A1S_2419) (Acinetobacter baumannii, UniProt A3M7E3).
T1 sequence (A3M7E3 1-189): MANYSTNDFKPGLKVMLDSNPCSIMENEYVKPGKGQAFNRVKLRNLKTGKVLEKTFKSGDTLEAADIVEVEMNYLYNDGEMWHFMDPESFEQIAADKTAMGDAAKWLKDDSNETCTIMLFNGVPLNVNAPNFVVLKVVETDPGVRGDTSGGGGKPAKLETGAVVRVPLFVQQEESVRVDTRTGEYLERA
As to the kind of experiment: isothermal titration calorimetry. It counts as binding.

Test [3] addresses T1, EF-P (A1S_2419). As to the kind of experiment: differential scanning fluorimetry. It counts as binding. The note with it: 500 µM c-di-GMP.

In the case of `Nc1nc2c(ncn2[C@@H]2O[C@@H]3COP(=O)(O)O[C@H]4[C@@H](O)[C@H](n5cnc6c(=O)[nH]c(N)nc65)O[C@@H]4COP(=O)(O)O[C@H]3[C@H]2O)c(=O)[nH]1` [c-di-GMP, bis-(3′-5′)-cyclic guanosine monophosphate], the Kd was found to be 10.7 µM in test [1] and 5.9 µM in test [2]. The thermal shift entry in test [3] is given as “The DSF assay showed a marked shift in the melting curve of EF-P”.

(Values after PMC9564936 (Proceedings of the National Academy of Sciences of the …, 2022).)
